The values below come from BindingDB's records for doi:10.1021/jm0104567 (Takeda Chemical Industries, 2002).

Structures can show the parent of a compound that is named as a salt.

The nature of this test: In vitro inhibition of acid induced swelling in rat platelets by 50% as a measure of NHE-1 inhibition.
In the case of `Cc1ccnc2c1C(=NN=C(N)N)C[C@H](c1ccccc1Cl)C2` [N-[7-(2-chlorophenyl)-4-methyl-(7S)-5,6,7,8-tetrahydro-5-quinolinyliden(imine)]iminomethanediamine 2CH3SO3H], the IC50 came out at 0.02 µM.
With `Cc1ccnc2c1C(=NN=C(N)N)CC(c1cccc(Cl)c1)C2` (stereo not drawn) [N-[7-(3-chlorophenyl)-4-methyl-5,6,7,8-tetrahydro-5-quinolinyliden(imine)]iminomethanediamine. dihydrochloride] the figure was 0.061 µM; with `Cc1cccc2c1C(=NN=C(N)N)CC(c1ccccc1Cl)O2` (stereo not drawn) [N-[2-(2-chlorophenyl)-5-methyl-3,4-dihydro-2H-4-chromenyliden(imine)]iminomethanediamine. hydrochloride], 0.2 µM; with `Cc1ccnc2c1C(=NN=C(N)N)CC(c1ccccc1Br)C2` (stereo not drawn) [N-[7-(2-bromophenyl)-4-methyl-5,6,7,8-tetrahydro-5-quinolinyliden(imine)]iminomethanediamine. dihydrochloride], 0.056 µM.
For `NC(N)=NN=C1CC(c2ccccc2)Cc2ncccc21` (stereo not drawn) [N-(7-phenyl-5,6,7,8-tetrahydro-5-quinolinyliden(imine))iminomethanediamine. dihydrochloride], half-maximal inhibition (IC50) was put at 0.41 µM. Against the preceding compound, the IC50 is about 7.3-fold higher.
The compound `Cc1ccnc2c1C(=NN=C(N)N)CC(c1cc(F)ccc1F)C2` (stereo not drawn) [N-[7-(2,5-difluorophenyl)-4-methyl-5,6,7,8-tetrahydro-5-quinolinyliden(imine)]iminomethanediamine. dihydrochloride] registered a concentration for half-maximal inhibition (IC50) of 0.039 µM. Against the preceding compound, the IC50 is about 11-fold lower.
For `Cc1ccnc2c1C(=NN=C(N)N)CC(c1cccs1)C2` (stereo not drawn) [N-[4-methyl-7-(2-thienyl)-5,6,7,8-tetrahydro-5-quinolinyliden(imine)]iminomethanediamine. dihydrochloride] the value was 0.047 µM.
`Cc1cccc2oc(-c3ccccc3Cl)cc(=NN=C(N)N)c12` [N-[2-(2-chlorophenyl)-5-methyl-4H-4-chromenylidenmethyl]iminomethanediamine. dihydrochloride] displayed an IC50 of 0.36 µM.
Turning to `Cc1ccc2c(n1)CC(c1ccccc1)CC2=NN=C(N)N` (stereo not drawn) [N-(2-methyl-7-phenyl-5,6,7,8-tetrahydro-5-quinolinyliden(imine))iminomethanediamine. dihydrochloride], the IC50 is 2.8 µM.
In turn, `Cc1ccccc1C1CC(=NN=C(N)N)c2c(C)ccnc2C1` (stereo not drawn) [N-[4-methyl-7-(2-methylphenyl)-5,6,7,8-tetrahydro-5-quinolinyliden(imine)]iminomethanediamine. dihydrochloride] had an IC50 of 0.057 µM.
For `NC(N)=NN=C1CC(c2ccccc2)Oc2ccccc21` (stereo not drawn) [N-(2-phenyl-3,4-dihydro-2H-4-chromenyliden(imine))iminomethanediamine. hydrochloride] the value was 3.3 µM; for `NC(N)=NN=C1CC(c2ccccc2)Cc2[nH]ccc21` (stereo not drawn) [N-(6-phenyl-4,5,6,7-tetrahydro-1H-4-indolyliden(imine))iminomethanediamine. dihydrochloride], 3.5 µM.
With `Cc1n[nH]c2c1C(=NN=C(N)N)CC(c1ccccc1Cl)C2` (stereo not drawn) [N-[6-(2-chlorophenyl)-3-methyl-4,5,6,7-tetrahydro-1H-4-indazolyliden(imine)]iminomethanediamine. dihydrochloride] the figure was 0.055 µM; with `Cc1ccnc2c1C(=NN=C(N)N)CC(c1ccccc1Cl)C2` (stereo not drawn) [N-[7-(2-chlorophenyl)-4-methyl-5,6,7,8-tetrahydro-5-quinolinyliden(imine)]iminomethanediamine. dihydrochloride], 0.04 µM; with `Cc1coc2c1C(=NN=C(N)N)CC(c1ccccc1Cl)C2` (stereo not drawn) [N-[6-(2-chlorophenyl)-3-methyl-4,5,6,7-tetrahydrobenzo[b]furan-4-yliden(imine)]iminomethanediamine. hydrochloride], 0.082 µM.
As for `COc1ccnc2c1C(=NN=C(N)N)CC(c1ccccc1Cl)C2` (stereo not drawn) [N-[7-(2-chlorophenyl)-4-methoxy-5,6,7,8-tetrahydro-5-quinolinyliden(imine)]iminomethanediamine. 2CH3SO3H], the IC50 amounted to 0.05 µM. Compared with the last compound, the IC50 is about 1.6-fold lower.
With `NC(N)=NN=c1cc(-c2ccccc2)oc2ccccc12` [N-(2-phenyl-4H-4-chromenyliden(imine))iminomethanediamine. hydrochloride], inhibition was half-maximal at 6.4 µM (IC50).
Turning to `Cc1ncnc2c1C(=NN=C(N)N)CC(c1ccccc1Cl)C2` (stereo not drawn) [N-[7-(2-chlorophenyl)-4-methyl-5,6,7,8-tetrahydro-5-quinazolinyliden(imine)]iminomethanediamine. dihydrochloride], the IC50 was found to be 0.24 µM. Compared with the last compound, the IC50 is about 27-fold lower.
Consider `COc1ccccc1C1CC(=NN=C(N)N)c2c(C)ccnc2C1` (stereo not drawn) [N-[7-(2-methoxyphenyl)-4-methyl-5,6,7,8-tetrahydro-5-quinolinyliden(imine)]iminomethanediamine. dihydrochloride], for which the IC50 stood at 0.1 µM.
`Cc1ccnc2c1C(=NN=C(N)N)CC(c1ccc(Cl)cc1Cl)C2` (stereo not drawn) [N-[7-(2,4-dichlorophenyl)-4-methyl-5,6,7,8-tetrahydro-5-quinolinyliden(imine)]iminomethanediamine. dihydrochloride] showed an IC50 of 0.34 µM. Against the preceding compound, the IC50 is about 3.4-fold higher.
With `Cc1ccnc2c1C(=NN=C(N)N)CC(c1ccc(Cl)cc1)C2` (stereo not drawn) [N-[7-(4-chlorophenyl)-4-methyl-5,6,7,8-tetrahydro-5-quinolinyliden(imine)]iminomethanediamine. dihydrochloride] the figure was 0.55 µM.
For `Cc1ccnc2c1C(=NN=C(N)N)CC(c1cc(Cl)ccc1Cl)C2` (stereo not drawn) [N-[7-(2,5-dichlorophenyl)-4-methyl-5,6,7,8-tetrahydro-5-quinolinyliden(imine)]iminomethanediamine. dihydrochloride] the value was 0.058 µM; for `Cc1ccnc2c1C(=NN=C(N)N)CC(c1cccc(Cl)c1Cl)C2` (stereo not drawn) [N-[7-(2,3-dichlorophenyl)-4-methyl-5,6,7,8-tetrahydro-5-quinolinyliden(imine)]iminomethanediamine. dihydrochloride], 0.089 µM.
`COc1cccc(C=NNC(=N)N)c1OCc1ccccc1` [N-[2-(2-benzyloxy-3-methoxyphenyl)-(E)-1-meth(imine)]iminomethanediamine] had an IC50 of 2.3 µM.
With `Cc1cnnc2c1C(=NN=C(N)N)CC(c1ccccc1Cl)C2` (stereo not drawn) [N-[7-(2-chlorophenyl)-4-methyl-5,6,7,8-tetrahydro-5-cinnolinyliden(imine)]iminomethanediamine. dihydrochloride] the figure was 0.026 µM; with `Cc1ccnc2c1C(=NN=C(N)N)C[C@H](c1cc(Cl)sc1Cl)C2` [(S)-N-[7-(2,5-dichloro-3-thienyl)-4-methyl-(7S)-5,6,7,8-tetrahydro-5-quinolinyliden(imine)]iminomethanediamine 2CH3SO3H], 0.017 µM.
In turn, `Cc1ccnc2c1C(=NN=C(N)N)CC(c1ccsc1)C2` (stereo not drawn) [N-[4-methyl-7-(3-thienyl)-5,6,7,8-tetrahydro-5-quinolinyliden(imine)]iminomethanediamine. dihydrochloride] yielded a half-maximal inhibitory concentration (IC50) of 0.03 µM.
Regarding `Cc1ccnc2c1C(=NN=C(N)N)CC(c1ccsc1Cl)C2` (stereo not drawn) [N-[7-(2-chloro-3-thienyl)-4-methyl-5,6,7,8-tetrahydro-5-quinolinyliden(imine)]iminomethanediamine. dihydrochloride], the IC50 came to 0.022 µM.
In turn, `Cc1cc(C)c2c(n1)CC(c1ccccc1)CC2=NN=C(N)N` (stereo not drawn) [N-(2,4-dimethyl-7-phenyl-5,6,7,8-tetrahydro-5-quinolinyliden(imine))iminomethanediamine. dihydrochloride] showed an IC50 of 0.18 µM. Compared with the last compound, the IC50 is about 8.2-fold higher.
With `Cc1ccccc1C1CC(=NN=C(N)N)c2c(C)c[nH]c2C1` (stereo not drawn) [N-[3-methyl-6-(2-methylphenyl)-4,5,6,7-tetrahydro-1H-4-indolyliden(imine)]iminomethanediamine. dihydrochloride], 0.034 µM corresponded to half-maximal inhibition (IC50).
For `Cc1ccnc2c1C(=NN=C(N)N)CC(c1ccco1)C2` (stereo not drawn) [N-[7-(2-furyl)-4-methyl-5,6,7,8-tetrahydro-5-quinolinyliden(imine)]iminomethanediamine. dihydrochloride] the value was 0.11 µM; for `Cc1ccnc2c1C(=NN=C(N)N)CC(c1sc(Cl)cc1Cl)C2` (stereo not drawn) [N-[7-(3,5-dichloro-2-thienyl)-4-methyl-5,6,7,8-tetrahydro-5-quinolinyliden(imine)]iminomethanediamine. dihydrochloride], 0.049 µM.
For `Cc1ccc(F)cc1C1CC(=NN=C(N)N)c2c(C)ccnc2C1` (stereo not drawn) [N-[7-(5-fluoro-2-methylphenyl)-4-methyl-5,6,7,8-tetrahydro-5-quinolinyliden(imine)]iminomethanediamine. dihydrochloride] the value was 0.037 µM.
As for `CC(C)c1ccc(C(=O)NC(=N)N)cc1S(C)(=O)=O`, the IC50 was 0.075 µM. Compared with the last compound, the IC50 is about 2-fold higher.
`Cc1ccnc2c1C(=NN=C(N)N)CC(c1ccccc1)C2` (stereo not drawn) [N-(4-methyl-7-phenyl-5,6,7,8-tetrahydro-5-quinolinyliden(imine))iminomethanediamine. dihydrochloride]: 0.091 µM corresponded to half-maximal inhibition (IC50).
For `Cc1ccnc2c1C(=NN=C(N)N)C[C@@H](c1cc(Cl)sc1Cl)C2` [(R)-N-[7-(2,5-dichloro-3-thienyl)-4-methyl-(7R)-5,6,7,8-tetrahydro-5-quinolinyliden(imine)]iminomethanediamine 2CH3SO3H] the value was 0.033 µM.
In the case of `Cc1ccnc2c1C(=NN=C(N)N)C[C@@H](c1ccccc1Cl)C2` [N-[7-(2-chlorophenyl)-4-methyl-(7S)-5,6,7,8-tetrahydro-5-quinolinyliden(imine)]iminomethanediamine 2CH3SO3H], the IC50 turned out to be 0.7 µM.
Regarding `Cc1ccc(F)cc1[C@H]1CC(=NN=C(N)N)c2c(C)ccnc2C1` [(S)-N-[7-(5-fluoro-2-methylphenyl)-4-methyl-(7S)-5,6,7,8-tetrahydro-5-quinolinyliden(imine)]iminomethanediamine 2CH3SO3H], the IC50 stood at 0.014 µM.
